# Reference: ChEMBL document CHEMBL1122727, “Adrenoceptor and tetrabenazine antagonism activities of some pyridinyltetrahydropyridines” (J Med Chem, 1984)
# Assays:
# [1] = Displacement of [3H]clonidine from calf cerebral cortex alpha-2 adrenergic receptor; assay type: tissue-based, Bos taurus
# [2] = Selectivity ratio expressed as the ratio of -log methoxamine pA2 to -log clonidine pA2
# [3] = Relative binding to alpha-1a and alpha-2 adrenergic receptors (ratio of Ki-prazosin and Ki-clonidine)
# [4] = target: T1, Alpha-1A adrenergic receptor (Bos taurus, UniProt P18130); assay: Displacement of [3H]prazosin from calf cerebral cortex alpha-1 adrenergic receptor; assay type: tissue-based
# T1 sequence (P18130 whole entry): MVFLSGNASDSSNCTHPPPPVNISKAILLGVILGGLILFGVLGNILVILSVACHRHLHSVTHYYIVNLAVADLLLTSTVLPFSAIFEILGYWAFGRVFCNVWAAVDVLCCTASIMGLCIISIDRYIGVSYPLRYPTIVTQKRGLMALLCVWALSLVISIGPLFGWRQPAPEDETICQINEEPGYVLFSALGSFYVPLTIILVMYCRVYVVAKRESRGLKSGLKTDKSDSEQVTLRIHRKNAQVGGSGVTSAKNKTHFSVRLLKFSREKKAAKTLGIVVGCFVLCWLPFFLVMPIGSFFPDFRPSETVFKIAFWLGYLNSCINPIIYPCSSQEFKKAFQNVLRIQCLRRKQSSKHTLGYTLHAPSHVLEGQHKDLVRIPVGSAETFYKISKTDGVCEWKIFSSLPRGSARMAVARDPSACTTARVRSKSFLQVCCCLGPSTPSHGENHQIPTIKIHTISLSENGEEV
# [5] = target: T2, Adrenergic receptor alpha-2 (Rattus norvegicus, UniProt P22086+P19328+P22909); assay: Antagonistic activity against clonidine-stimulated rat vas deferens presynaptic alpha-2 adrenergic receptor; assay type: functional, tissue-based
# T2 sequence (P22086 whole entry): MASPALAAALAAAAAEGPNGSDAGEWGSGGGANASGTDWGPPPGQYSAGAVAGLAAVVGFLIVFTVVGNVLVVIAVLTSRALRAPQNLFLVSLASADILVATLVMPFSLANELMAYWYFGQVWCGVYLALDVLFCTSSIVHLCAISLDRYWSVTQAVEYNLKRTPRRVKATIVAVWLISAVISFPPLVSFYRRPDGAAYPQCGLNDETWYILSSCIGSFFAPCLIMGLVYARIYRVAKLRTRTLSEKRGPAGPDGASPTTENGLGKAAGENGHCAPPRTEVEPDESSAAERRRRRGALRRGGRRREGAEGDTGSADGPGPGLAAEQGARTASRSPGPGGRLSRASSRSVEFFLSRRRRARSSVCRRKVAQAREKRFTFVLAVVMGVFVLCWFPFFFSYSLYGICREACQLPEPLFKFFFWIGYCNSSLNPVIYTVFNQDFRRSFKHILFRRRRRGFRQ
# T2 sequence (P19328 whole entry): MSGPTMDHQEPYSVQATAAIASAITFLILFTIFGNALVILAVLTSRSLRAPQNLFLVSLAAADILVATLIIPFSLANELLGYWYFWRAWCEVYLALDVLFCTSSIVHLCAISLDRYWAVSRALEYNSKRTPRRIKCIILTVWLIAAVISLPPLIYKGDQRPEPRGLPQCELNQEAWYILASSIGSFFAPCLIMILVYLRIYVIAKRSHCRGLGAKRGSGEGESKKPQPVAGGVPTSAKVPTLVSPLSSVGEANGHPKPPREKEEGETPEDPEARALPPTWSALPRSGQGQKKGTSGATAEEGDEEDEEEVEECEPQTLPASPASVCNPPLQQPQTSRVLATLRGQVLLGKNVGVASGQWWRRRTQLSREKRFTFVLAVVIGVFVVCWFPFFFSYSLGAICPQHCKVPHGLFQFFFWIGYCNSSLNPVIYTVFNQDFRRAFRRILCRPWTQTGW
# T2 sequence (P22909 whole entry): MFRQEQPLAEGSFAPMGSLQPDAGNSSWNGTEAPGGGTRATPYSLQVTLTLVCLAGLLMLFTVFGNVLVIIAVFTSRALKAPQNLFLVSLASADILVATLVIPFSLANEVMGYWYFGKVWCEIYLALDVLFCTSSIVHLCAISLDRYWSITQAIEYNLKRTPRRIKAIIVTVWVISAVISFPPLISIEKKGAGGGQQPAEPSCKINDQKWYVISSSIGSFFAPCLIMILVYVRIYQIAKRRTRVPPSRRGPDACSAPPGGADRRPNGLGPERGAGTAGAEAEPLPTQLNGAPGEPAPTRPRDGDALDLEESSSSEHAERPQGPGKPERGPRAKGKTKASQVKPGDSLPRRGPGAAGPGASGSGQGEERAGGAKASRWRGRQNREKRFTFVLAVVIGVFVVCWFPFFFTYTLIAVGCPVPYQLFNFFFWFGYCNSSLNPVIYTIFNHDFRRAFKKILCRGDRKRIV
# Mus musculus = assay: Compound was evaluated for its antagonistic effect on the Tetrabenazine-induced ptosis following intravenous administration; assay type: functional
# [6] = target: T3, Adrenergic receptor alpha-1 (Rattus norvegicus, UniProt P15823+P23944+P43140); assay: Antagonistic activity upon postsynaptic alpha-1 adrenergic receptor was determined in the rat isolated, field stimulated vas deferens using methoxamine; assay type: functional, tissue-based
# T3 sequence (P15823 whole entry): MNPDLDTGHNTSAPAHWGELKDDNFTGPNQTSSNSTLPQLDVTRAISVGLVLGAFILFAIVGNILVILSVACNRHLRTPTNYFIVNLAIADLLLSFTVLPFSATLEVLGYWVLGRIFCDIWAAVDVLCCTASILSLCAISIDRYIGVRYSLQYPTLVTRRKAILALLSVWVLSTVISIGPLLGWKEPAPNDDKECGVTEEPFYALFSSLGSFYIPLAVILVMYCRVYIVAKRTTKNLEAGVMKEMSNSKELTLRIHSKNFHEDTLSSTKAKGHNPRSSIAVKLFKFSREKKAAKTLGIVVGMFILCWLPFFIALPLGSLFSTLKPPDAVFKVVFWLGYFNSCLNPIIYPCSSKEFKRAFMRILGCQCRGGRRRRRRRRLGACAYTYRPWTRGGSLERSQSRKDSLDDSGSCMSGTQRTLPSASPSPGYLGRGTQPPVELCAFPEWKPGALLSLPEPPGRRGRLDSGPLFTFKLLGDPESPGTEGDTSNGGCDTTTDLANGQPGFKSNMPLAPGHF
# T3 sequence (P23944 whole entry): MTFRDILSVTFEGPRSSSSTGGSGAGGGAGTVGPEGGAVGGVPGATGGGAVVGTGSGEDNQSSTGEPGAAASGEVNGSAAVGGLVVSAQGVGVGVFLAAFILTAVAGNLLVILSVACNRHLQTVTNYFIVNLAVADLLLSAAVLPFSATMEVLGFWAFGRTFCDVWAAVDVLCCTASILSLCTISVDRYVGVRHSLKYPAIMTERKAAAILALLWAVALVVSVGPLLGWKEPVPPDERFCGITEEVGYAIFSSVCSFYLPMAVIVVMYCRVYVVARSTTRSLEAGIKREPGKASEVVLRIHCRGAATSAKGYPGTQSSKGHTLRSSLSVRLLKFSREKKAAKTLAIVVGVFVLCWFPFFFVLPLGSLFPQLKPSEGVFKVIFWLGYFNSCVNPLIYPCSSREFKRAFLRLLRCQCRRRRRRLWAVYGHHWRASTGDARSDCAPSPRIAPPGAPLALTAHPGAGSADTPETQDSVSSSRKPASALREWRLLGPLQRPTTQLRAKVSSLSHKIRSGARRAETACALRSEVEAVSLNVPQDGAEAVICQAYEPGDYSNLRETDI
# T3 sequence (P43140 whole entry): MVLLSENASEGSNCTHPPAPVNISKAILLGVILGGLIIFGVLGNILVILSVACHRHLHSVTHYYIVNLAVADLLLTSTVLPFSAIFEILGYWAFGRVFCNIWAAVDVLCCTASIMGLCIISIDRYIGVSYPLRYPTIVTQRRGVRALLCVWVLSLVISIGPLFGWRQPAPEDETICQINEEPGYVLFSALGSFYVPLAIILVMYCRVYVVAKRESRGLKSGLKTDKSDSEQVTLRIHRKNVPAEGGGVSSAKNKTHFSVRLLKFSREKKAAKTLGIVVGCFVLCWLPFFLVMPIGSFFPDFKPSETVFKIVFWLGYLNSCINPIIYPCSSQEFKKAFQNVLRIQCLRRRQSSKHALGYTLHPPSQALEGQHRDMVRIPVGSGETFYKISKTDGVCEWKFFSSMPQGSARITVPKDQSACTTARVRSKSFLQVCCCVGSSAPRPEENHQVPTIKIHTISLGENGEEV
SMILES,Ki [1] [nM],Selectivity ratio [2],Selectivity ratio [3],Ki [4] [nM],pA2 [5],ED50 (Mus musculus) [mg/kg],pA2 [6]
c1ccc(N2CCNCC2)nc1,37,5,65,,,,
CN1CCC(c2ccccn2)CC1,420,,6,2500,< 5.8,,
Cc1cccnc1C1=CCN(C)CC1,170,,15,2500,< 5.8,,
C1=C(c2ccccn2)CCNC1,144,,28,4000,< 5.7,,
CN1CC=C(c2ccccn2)CC1,57,6,44,2500,6.2,0.5,5.4
CNCCCN1c2ccccc2CCc2ccccc21 [DESIPRAMINE],,,,,,0.07,
CN1CCN(c2ncccc2F)CC1,5,16,98,,,,
CN1CC=C(c2ncccc2F)CC1,22,32,150,3300,6.8,0.35,5.3
CN1CC=C(c2ccncc2F)CC1,720,,11,7700,< 5.8,,
CN1CC=C(c2ncccc2Cl)CC1,72,,31,2260,< 5.9,,
CN1CC=C(c2cccnc2)CC1,750,,6.4,4800,< 5.8,,
